Reference: US11628168B2, “Medical application of pyrimidine sulfonamides derivatives” (CHINESE PLA GENERAL HOSPITAL, priority 2018, dated 2023)

Columns and labels:
Format in all cases: in vivo, SD rats
[1] = tested on: right ventricular function of rats in low-pressure low-oxygen cabin; experiment: Echocardiography of rats in low-pressure low-oxygen cabin (simulated altitude 5,500 m); details: x±s
Procedure: (§1) 40 healthy SD rats (180-220 g, male) are purchased from Beijing Vital River Laboratory Animal Technology Co. Ltd, belong to the SPF grade and have the license number of SCXK(Jing)2016-0006. The healthy SD rats are fed in a low-pressure oxygen cabin, and regularly fed with a complete nutritional feed under the conditions of the temperature of 22 to 25° C. and the humidity of 30% to 50%.
(§2) Solvent configuration: 5% of DMSO and 95% of normal saline with 10% of HP-β-CD, and pH=9.
(§3) An experimental group A: a low-pressure low-oxygen cabin, and intragastric administration of sc0062 (15 mg/kg) as well as a solvent
(§4) An experimental group B: a low-pressure low-oxygen cabin, and intragastric administration of sc0062 (30 mg/kg) as well as a solvent
(§5) 40 rats are randomly divided into four groups, each group includes 10 rats, 3 groups are placed into a low-pressure low-oxygen cabin, the pressure of the oxygen cabin is regulated to 380 mmHg, a high altitude environment with an altitude of 5,500 meters is simulated, the low-pressure low-oxygen cabin is opened for 1 hour every day so as to add foods and water for animals and carry out corresponding medicine treatment, and meanwhile, the environment where the rats are positioned are kept alternate day and night according to a ratio of 12 h:12 h. After 3 groups of rats are in the oxygen-poor environment for 14 days, intragastric administration is respectively carried out on the 3 groups of rats, the solvent (the model group), the sc0062 (15 mg/kg) and the solvent (the experimental group A) and the sc0062 (30 mg/kg) and the solvent (the experimental group B) are respectively applied to the 3 groups of rats, and the operation is continued for 14 days. Rats in the fourth group (the blank control group) are placed in the same room to be fed in the normal-pressure normal-oxygen environment.
(§6) 3% pentobarbital sodium (0.2 mL/100 g) is intraperitoneally injected to anesthetize the rats, ultrasonic detection is carried out, and the following ultrasonic data is recorded: PAT/PET (pulmonary arterial blood flow acceleration time/right ventricular […]); right ventricular ejection fraction EF; a right ventricular fractional shortening FS; and tricuspid annular plane systolic excursion TAPSE. The anesthetize rats are fixed on an operating table in a supine position mode, tracheotomy is carried out, a breathing machine is connected, and thoracotomy is carried out to expose the hearts. A catheter is inserted into each right ventricle, and the right ventricular systolic pressure is recorded. Then each catheter is slowly pushed forwards, can reach a corresponding pulmonary artery through a corresponding right ventricular outflow tract, the pressure waveform of a monitor is observed, and the mean pulmonary arterial pressure mPAP is recorded. Blood is collected and the rats are executed. The hearts and the lung tissue are taken out, the atrial tissue and the root of the main artery are removed, left and right ventricles are separated, bloodstain is washed out in PBS, moisture is sucked up by filter paper, and the weight of the right ventricles (RV) and the weight of the left ventricles and the […] (LV+IS) are respectively weighed. Calculation is carried out according to the following formula: right ventricular hypertrophy index=RV/(LV+IS).
(§7) All the data is represented by x±s, comparison among the groups is single factor analysis of variance, when P<0.05, it represents that the difference has a statistical significance, and statistical treatment is carried out by adopting an SPSS 22.0 software package.

[2] = tested on: pulmonary arterial hypertension of model rats; experiment: Rat haemodynamics: mean pulmonary arterial pressure by right heart catheter, low-pressure low-oxygen model; details: for mPVP: x±s
Procedure: as §1, §2, §3, §4
40 rats are randomly divided into four groups, each group includes 10 rats, 3 groups are placed into a low-pressure low-oxygen cabin, the pressure of the oxygen cabin is regulated to 380 mmHg, a high altitude environment with an altitude of 5,500 meters is simulated, the low-pressure low-oxygen cabin is opened for 1 hour every day so as to add foods and water for animals and carry out corresponding medicine treatment, and meanwhile, the environment where the rats are positioned are kept alternate day and night according to a ratio of 12 h:12 h. […]
3% pentobarbital sodium (0.2 mL/100 g) is intraperitoneally injected to anesthetize the rats, ultrasonic detection is carried out, and the following ultrasonic data is recorded: PAT/PET (pulmonary arterial blood flow acceleration time/right ventricular […]); right ventricular ejection fraction EF; a right ventricular fractional shortening FS; and tricuspid annular plane systolic excursion TAPSE. […] A catheter is inserted into each right ventricle, and the right ventricular systolic pressure is recorded. Then each catheter is slowly pushed forwards, can reach a corresponding pulmonary artery through a corresponding right ventricular outflow tract, the pressure waveform of a monitor is observed, and the mean pulmonary arterial pressure mPAP is recorded. […]

[3] = tested on: right ventricular hypertrophy of rats in low-pressure low-oxygen cabin; experiment: Rat right ventricular hypertrophy index, low-pressure low-oxygen model; details: for Full heart / RV (weight of the right ventricles) / RV/(LV + IS) right ventricular hypertrophy index: x±s
Procedure: as §1, §2, §3, §4, §5, §6, §7

[4] = 15 mg/kg intragastric for 14 days after 14 days hypoxia (380 mmHg)
[5] = 30 mg/kg intragastric for 14 days after 14 days hypoxia (380 mmHg)

COCCNS(=O)(=O)Nc1ncnc(OCCOc2ncc(Br)cn2)c1-c1ccc2c(c1)OCO2 [sc0062]
PAT/PET [1, 4]: 0.39 ± 0.07
Right ventricular EF [1, 4]: 67.25 ± 13.01
Right ventricular FS [1, 4]: 37.02 ± 10.63
TAPSE [1, 4]: 2.05 ± 0.29
PAT/PET [1, 5]: 0.40 ± 0.07
Right ventricular EF [1, 5]: 71.32 ± 9.35
Right ventricular FS [1, 5]: 39.76 ± 7.24
TAPSE [1, 5]: 1.93 ± 0.44
mPVP [2, 4]: 31.39 ± 3.90
mPVP [2, 5]: 26.91 ± 4.35
mean pulmonary arterial pressure compared with the model group ([2]; experimental groups A and B (15 and 30 mg/kg), p<0.01): significantly raised
Full heart [3, 4]: 1.47 ± 0.24
RV (weight of the right ventricles) [3, 4]: 0.56 ± 0.09
RV/(LV + IS) right ventricular hypertrophy index [3, 4]: 0.38 ± 0.02
Full heart [3, 5]: 1.30 ± 0.21
RV (weight of the right ventricles) [3, 5]: 0.48 ± 0.11
RV/(LV + IS) right ventricular hypertrophy index [3, 5]: 0.36 ± 0.02
right ventricular hypertrophy index compared with the model group ([3]; experimental groups A and B (15 and 30 mg/kg), p<0.05): reduced
